From patent US6855843B2, “Inhibitors of α4 mediated cell adhesion” (Tanabe Seiyaku Co., Ltd., priority 1998, dated 2005)

molecular target: T1, α4β7 (adhesion of RPMI cells to CS-1) (Homo sapiens, UniProt P13612+P26010); assay: RPMI-CS-1 cell adhesion assay; format: cell-based; settings: adhesion of RPMI B-cell line (expresses α4β7) to CS-1 peptide coated microwells; read-out: RPMI-CS-1 IC50 value range
T1 construct: endogenous in cells
T1 sequence (P13612 34-1032): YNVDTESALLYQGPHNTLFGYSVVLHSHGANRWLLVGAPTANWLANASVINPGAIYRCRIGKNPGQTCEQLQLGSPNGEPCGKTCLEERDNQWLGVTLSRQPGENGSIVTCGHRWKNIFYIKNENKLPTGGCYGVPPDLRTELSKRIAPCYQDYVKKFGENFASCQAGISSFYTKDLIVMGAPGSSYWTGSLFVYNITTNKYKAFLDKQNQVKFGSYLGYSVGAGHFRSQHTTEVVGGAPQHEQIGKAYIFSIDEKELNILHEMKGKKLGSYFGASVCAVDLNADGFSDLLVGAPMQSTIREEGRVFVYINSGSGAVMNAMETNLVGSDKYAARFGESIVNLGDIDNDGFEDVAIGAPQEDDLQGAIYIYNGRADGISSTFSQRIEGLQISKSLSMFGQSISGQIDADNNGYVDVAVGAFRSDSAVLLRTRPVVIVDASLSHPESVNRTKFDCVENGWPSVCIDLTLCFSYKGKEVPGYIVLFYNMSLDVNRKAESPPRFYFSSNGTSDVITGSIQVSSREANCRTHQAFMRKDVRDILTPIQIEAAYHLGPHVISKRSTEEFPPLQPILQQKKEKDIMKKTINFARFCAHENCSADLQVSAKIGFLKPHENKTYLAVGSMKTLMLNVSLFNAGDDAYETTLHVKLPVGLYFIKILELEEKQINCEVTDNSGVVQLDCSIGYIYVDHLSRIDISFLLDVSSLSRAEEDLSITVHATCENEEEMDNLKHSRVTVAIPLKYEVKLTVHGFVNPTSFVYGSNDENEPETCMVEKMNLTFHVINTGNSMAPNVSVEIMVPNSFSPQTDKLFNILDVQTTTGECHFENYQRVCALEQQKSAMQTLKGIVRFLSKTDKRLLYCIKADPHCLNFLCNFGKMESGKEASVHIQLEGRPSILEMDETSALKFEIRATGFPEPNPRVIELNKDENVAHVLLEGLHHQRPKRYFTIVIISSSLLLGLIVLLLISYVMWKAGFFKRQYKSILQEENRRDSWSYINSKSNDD
T1 sequence (P26010 20-798): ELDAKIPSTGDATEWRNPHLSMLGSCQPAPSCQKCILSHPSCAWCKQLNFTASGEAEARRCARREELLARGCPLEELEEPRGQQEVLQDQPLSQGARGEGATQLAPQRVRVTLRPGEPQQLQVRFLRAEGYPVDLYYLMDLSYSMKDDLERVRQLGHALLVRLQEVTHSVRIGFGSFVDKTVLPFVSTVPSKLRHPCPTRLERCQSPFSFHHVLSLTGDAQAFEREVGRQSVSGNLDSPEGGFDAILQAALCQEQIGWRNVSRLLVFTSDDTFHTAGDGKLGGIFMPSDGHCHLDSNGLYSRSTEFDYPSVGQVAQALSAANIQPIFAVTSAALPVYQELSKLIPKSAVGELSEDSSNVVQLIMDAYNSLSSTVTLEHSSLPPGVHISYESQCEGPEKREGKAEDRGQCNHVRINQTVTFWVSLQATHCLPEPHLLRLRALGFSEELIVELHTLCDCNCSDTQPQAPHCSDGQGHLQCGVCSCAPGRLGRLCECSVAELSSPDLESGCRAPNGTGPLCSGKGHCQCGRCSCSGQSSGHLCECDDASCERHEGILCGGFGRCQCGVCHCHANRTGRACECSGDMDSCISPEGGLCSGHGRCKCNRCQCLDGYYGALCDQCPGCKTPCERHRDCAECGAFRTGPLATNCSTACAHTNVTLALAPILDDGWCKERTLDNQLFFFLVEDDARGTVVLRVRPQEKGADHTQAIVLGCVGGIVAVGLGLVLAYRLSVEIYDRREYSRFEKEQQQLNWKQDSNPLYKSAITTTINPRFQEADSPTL
Protocol: RPMI-CS-1 Cell Adhesion Assay:
The test compounds were added in increasing concentrations to RPMI cells and then the cell-compound mixture was added to CS-1 coated microwells. The plates were incubated, washed and the percentage of attached cells were quantitated.
The CS-1 derived peptide, […], and the scrambled control peptide, […], were synthesized at Tanabe Research Laboratories, USA, Inc. on a Beckman 990 synthesizer using t-Boc methodology. […] Microtiter plates were coated with 20 μg/ml human serum albumin (HSA) for 2 hours at room temperature, washed once with PBS and derivatized with 10 μg/ml SPDP for 1 hour. […] Unbound peptide was removed from the plates by washing with PBS. To block non-reacted sites, the plates were coated with 100 μl of a 2.5 mg/ml BSA solution in PBS for one hour at 37° C. 100 μl of RPMI cells (2.5×10^6 cells/ml) in Dulbecco's Modified Eagles Medium (DMEM) plus 0.25% ovalbumin were added to peptide coated dishes and incubated for 1 hour at 37° C. […] To do this, the enzyme substrate p-nitrophenyl-N-acetyl-β-D-glucoseaminide is dissolved at 7.5 mM in 0.1 M citrate buffer pH 5 and then mixed with an equal volume of 0.5% Triton X100. 50 μl of the substrate solution was added to the plates and the plates were incubated at 37° C. for 60 minutes.
In this assay, IC50 value ranges (μM) are depicted by A, B, C and D. These ranges as follows. D>5≧C>1≧B>0.3≧A

SMILES	IC50 [nM]
O=C(O)C=Cc1ccccc1-c1ccc(C[C@H](NC(=O)c2c(Cl)cccc2Cl)C(=O)O)cc1 (mixture of isomers) [Example 49, N-(2,6-Dichlorobenzoyl)-4-[2-(2-carboxyethenyl)phenyl]-L-phenylalanine]	300 to 1000
C[S+]([O-])c1ccccc1-c1ccc(C[C@H](NC(=O)c2c(Cl)cccc2Cl)C(=O)O)cc1 (single isomer, unassigned) [Example 152A, N-(2,6-dichloro-benzoyl)-4-[2-(methylsulfinyl)phenyl]-L-phenylalanine]	< 300
C[S+]([O-])c1ccccc1-c1ccc(C[C@H](NC(=O)c2c(Cl)cccc2Cl)C(=O)O)cc1 (single isomer, unassigned) [Example 152C, N-(2,6-dichloro-benzoyl)-4-[2-(methylsulfinyl)phenyl]-L-phenylalanine]	300 to 1000
COC(=O)[C@H](Cc1ccc(-c2ccccc2OC)cc1)NC(=O)c1c(Cl)cccc1Cl [Example 1A, N-(2,6-Dichlorobenzoyl)-4-(2-methoxyphenyl)-L-phenylalanine methyl ester]	300 to 1000
COc1ccccc1-c1ccc(C[C@H](NC(=O)[C@@H](C)c2ccccc2)C(=O)O)cc1 [Example 2, N-[(S)-2-Phenylpropionyl]-4-(2-methoxyphenyl)-L-phenylalanine]	1000 to 5000
COc1cccc(OC)c1-c1ccc(C[C@H](NC(=O)c2c(F)cccc2F)C(=O)O)cc1 [Example 3, N-(2,6-Difluorobenzoyl)-4-(2,6-dimethoxyphenyl)-L-phenylalanine]	< 300
COC(=O)[C@H](Cc1ccc(-c2cccs2)cc1)NC(=O)c1c(Cl)cccc1Cl [Example 4A, N-(2,6-Dichlorobenzoyl)-4-(2-thienyl)-L-phenylalanine methyl ester]	1000 to 5000
O=C(N[C@@H](Cc1ccc(-c2cccs2)cc1)C(=O)O)c1c(Cl)cccc1Cl [Example 4B, N-(2,6-Dichlorobenzoyl)-4-(2-thienyl)-L-phenylalanine]	300 to 1000
COC(=O)[C@H](Cc1ccc(-c2c(OC)cccc2OC)cc1)NC(=O)c1c(Cl)cccc1Cl [Example 7A, N-(2,6-Dichlorobenzoyl)-4-(2,6-dimethoxyphenyl)-L-phenylalanine methyl ester]	< 300
COc1ccccc1-c1ccc(C[C@H](NC(=O)c2c(Cl)cccc2Cl)C(=O)O)cc1 [Example 8, N-(2,6-Dichlorobenzoyl)-4-(2-methoxyphenyl)-L-phenylalanine]	< 300
COc1ccc(-c2ccc(C[C@H](NC(=O)c3c(Cl)cccc3Cl)C(=O)O)cc2)c(OC)c1 [Example 9, N-(2,6-Dichlorobenzoyl)-4-(2,4-dimethoxyphenyl)-L-phenylalanine]	< 300
COc1ccc(OC)c(-c2ccc(C[C@H](NC(=O)c3c(Cl)cccc3Cl)C(=O)O)cc2)c1OC [Example 10, N-(2,6-Dichlorobenzoyl)-4-(2,3,6-trimethoxyphenyl)-L-phenylalanine]	< 300
COc1cc(OC)c(-c2ccc(C[C@H](NC(=O)c3c(Cl)cccc3Cl)C(=O)O)cc2)c(OC)c1 [Example 11, N-(2,6-Dichlorobenzoyl)-4-(2,4,6-trimethoxyphenyl)-L-phenylalanine]	< 300
COc1cc(Cl)cc(OC)c1-c1ccc(C[C@H](NC(=O)c2c(Cl)cccc2Cl)C(=O)O)cc1 [Example 12, N-(2,6-Dichlorobenzoyl)-4-(4-chloro-2,6-dimethoxyphenyl)-L-phenylalanine]	< 300
CCOc1cccc(OCC)c1-c1ccc(C[C@H](NC(=O)c2c(Cl)cccc2Cl)C(=O)O)cc1 [Example 13, N-(2,6-Dichlorobenzoyl)-4-(2,6-diethoxyphenyl)-L-phenylalanine]	< 300
CCOc1cccc(OC)c1-c1ccc(C[C@H](NC(=O)c2c(Cl)cccc2Cl)C(=O)O)cc1 [Example 14, N-(2,6-Dichlorobenzoyl)-4-(2-ethoxy-6-methoxyphenyl)-L-phenylalanine]	< 300
COC(=O)[C@H](Cc1ccc(-c2ccccc2S(=O)(=O)NC(C)(C)C)cc1)NC(=O)c1c(Cl)cccc1Cl [Example 15, N-(2,6-Dichlorobenzoyl)-4-[2-[N-(tert-butyl)sulfamoyl]phenyl]-L-phenylalanine methyl ester]	300 to 1000
CC(C)(C)NS(=O)(=O)c1ccccc1-c1ccc(C[C@H](NC(=O)c2c(Cl)cccc2Cl)C(=O)O)cc1 [Example 16, N-(2,6-Dichlorobenzoyl)-4-[2-[N-(tert-butyl)sulfamoyl]phenyl]-L-phenylalanine]	< 300
NS(=O)(=O)c1ccccc1-c1ccc(C[C@H](NC(=O)c2c(Cl)cccc2Cl)C(=O)O)cc1 [Example 17, N-(2,6-Dichlorobenzoyl)-4-(2-sulfamoylphenyl)-L-phenylalanine]	< 300
O=C(NS(=O)(=O)c1ccccc1-c1ccc(C[C@H](NC(=O)c2c(Cl)cccc2Cl)C(=O)O)cc1)c1ccccc1 [Example 18, N-(2,6-Dichlorobenzoyl)-4-[2-(N-benzoylsulfamoyl)phenyl]-L-phenylalanine]	300 to 1000
CC(=O)NS(=O)(=O)c1ccccc1-c1ccc(C[C@H](NC(=O)c2c(Cl)cccc2Cl)C(=O)O)cc1 [Example 19, N-(2,6-Dichlorobenzoyl)-4-[2-(N-acetylsulfamoyl)phenyl]-L-phenylalanine]	1000 to 5000
CNS(=O)(=O)c1ccccc1-c1ccc(C[C@H](NC(=O)c2c(Cl)cccc2Cl)C(=O)O)cc1 [Example 20, N-(2,6-Dichlorobenzoyl)-4-[2-(N-methylsulfamoyl)phenyl]-L-phenylalanine]	< 300
CN(C)S(=O)(=O)c1ccccc1-c1ccc(C[C@H](NC(=O)c2c(Cl)cccc2Cl)C(=O)O)cc1 [Example 21, N-(2,6-Dichlorobenzoyl)-4-[2-(N,N-dimethylsulfamoyl)phenyl]-L-phenylalanine]	< 300
CC(C)(C)OC(=O)Nc1ccccc1-c1ccc(C[C@H](NC(=O)c2c(Cl)cccc2Cl)C(=O)O)cc1 [Example 22, N-(2,6-Dichlorobenzoyl)-4-[2-(tertbutoxycarbonylamino)phenyl]-L-phenylalanine]	1000 to 5000
Nc1ccccc1-c1ccc(C[C@H](NC(=O)c2c(Cl)cccc2Cl)C(=O)O)cc1 [Example 23, N-(2,6-Dichlorobenzoyl)-4-(2-aminophenyl)-L-phenylalanine]	300 to 1000
CS(=O)(=O)Nc1ccccc1-c1ccc(C[C@H](NC(=O)c2c(Cl)cccc2Cl)C(=O)O)cc1 [Example 24, N-(2,6-Dichlorobenzoyl)-4-[2-(methanesulfonylamino)phenyl]-L-phenylalanine]	< 300
